Results on 2 compounds are retold here after patent publication US20070264702A1 (priority 2003, published 2007).

The target in series [1] is MarR (Escherichia coli, UniProt P27245). The conditions noted are these: cited from earlier work.
For series [2] the following is noted: in vivo; cited from earlier work.
In series [3] the test system is nahR/Psal::xylS2 cascade circuit with Pm::trp′::′lacZ in SL7207 4S2. The format is cell-based, Salmonella typhimurium.
The subject of series [4] is SL7207 4S2 pWSK-/pCAS-trp′::′lacZ infecting HeLa cells. The format is cell-based.
Series [5] concerns XylS2. The conditions noted are these: XylS2 mutant regulator; cited from earlier work.
The test system of series [6] is nahR/Psal with xylS2/Pm downstream. The conditions noted are these: cited from earlier work.
The test system of series [7] is SL7207 4S2. In words: growth inhibition of the bacterial cultures at high inducer concentration. The note with it: high concentrations (5 mM).

Broadly, the Kd is the constant that tells how readily two partners part at equilibrium. What is called half-life is the time in which the quantity being followed falls by half.

“Also recorded” adds a separate entry of the source.

MarR, sequence (P27245 whole entry): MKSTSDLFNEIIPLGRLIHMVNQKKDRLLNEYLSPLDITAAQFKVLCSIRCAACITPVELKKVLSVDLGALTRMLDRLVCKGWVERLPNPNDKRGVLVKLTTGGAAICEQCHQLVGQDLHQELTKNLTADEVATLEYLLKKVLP

Turning to `O=C(O)c1ccccc1O` [salicylate], in series [1], the Kd was 500 µM. For the same compound, the half-life in series [2] is 2 to 4 h.
Consider `CC(=O)Oc1ccccc1C(=O)O` [acetylsalicylic acid], for which the “induction of the system, salicylate compared with acetylsalicylic acid” value in series [3] was “induced the system similarly”. Further, in series [4], the “β-galactosidase expression in bacteria infecting HeLa cells” value is listed as “induce similar levels of β-galactosidase; also recorded: activate the signal cascade to similar levels”. The induction of expression in series [5] is given as 10 fold. In addition, in series [6], the “induction reached with regulation cascade system” value is 1,000 fold. Further, the growth inhibition result in series [7] is on record as “growth inhibition was evident”.
